# Bridge positions count the residues as written; N and C are the ends. Peptide text beside a SMILES is read from it.
# How the values were obtained:
# [1] = tested on: Candida albicans (SC5314); conditions: lab strain; 1 hour 37° C. in 10 mM NaCl/50 mM MOPS, pH 7.2, then YPD broth 24 hours 30° C.
# mice = assay: Tolerability in mice, intra-peritoneal injection; assay type: in vivo
# Procedure: (§1) In addition, mice were able to withstand a concentration of 15 mg/kg of DB2121 when injected via an intra-peritoneal route. When injected into adult rats, a concentration of up to and including 1.5 mg/kg caused no harm when injected intra-venously.
# [2] = tested on: Candida albicans (isolate #99); conditions: clinical isolate #99; 1 hour 37° C. in 10 mM NaCl/50 mM MOPS, pH 7.2, then YPD 24 hours 30° C.
# [3] = tested on: Candida albicans (isolate #AST97); conditions: clinical isolate AST97 (blood culture); 1 hour 37° C. in 10 mM NaCl/50 mM MOPS, pH 7.2, then YPD 24 hours 30° C.
# MRSAS. aureus (STRAIN 1) = conditions: clinical MRSA strain 1; 1 hour 37° C. in 10 mM NaCl/50 mM MOPS, pH 7.2, then YPD 24 hours 37° C.
# [4] = tested on: Candida dubliniensis (isolate #10); conditions: clinical isolate #10; 1 hour 37° C. in 10 mM NaCl/50 mM MOPS, pH 7.2, then YPD 24 hours 30° C.
# Candida albicans = conditions: concentration of cyclic Histatin analogue, alone or in combination; 1 hour 37° C. in 20 mM Tris-Cl, pH 7.2, 20 mM NaCl, then YPD 24 hours
# [5] = tested on: Candida albicans (isolate #11); conditions: clinical isolate #11; 1 hour 37° C. in 10 mM NaCl/50 mM MOPS, pH 7.2, then YPD 24 hours 30° C.
# S. aurens (ATCC 43300) = conditions: lab strain ATCC 43300; 1 hour 37° C. in 10 mM NaCl/50 mM MOPS, pH 7.2, then YPD 24 hours 37° C.
# [6] = tested on: primary human foreskin epithelial cell culture; conditions: various concentrations, 0, 36 and 72 hours (FIG. 3)
# Procedure: To determine range of non-toxic concentrations of DB2121, various concentration s of DB2121, 50 μM ketoconazole or DMSO as a control were separately added to primary human foreskin epithelial cell culture. At 0, 36 and 72 hours after addition, the epithelial cells were titriated off the culture plate and the viable cell number was determined. The experiment was performed in triplicate. At 72 hours, the foreskin epithelial cells exposed to the various compounds were imaged at 20× magnification using phase contrast microscopy. For cell counting, the epithelial cells were stained with trypan exclusion stain to monitor cell viability.
# MRSAS. aureus (STRAIN 2) = conditions: clinical MRSA strain 2; 1 hour 37° C. in 10 mM NaCl/50 mM MOPS, pH 7.2, then YPD 24 hours 37° C.
# [7] = tested on: Candida albicans (isolate #5); conditions: clinical isolate #5; 1 hour 37° C. in 10 mM NaCl/50 mM MOPS, pH 7.2, then YPD 24 hours 30° C.
# [8] = tested on: Candida tropicalis (isolate #93); conditions: clinical isolate #93; 1 hour 37° C. in 10 mM NaCl/50 mM MOPS, pH 7.2, then YPD 24 hours 30° C.
# Bacillus subtilis = assay: MIC, inhibition of cell growth; assay type: cell-based; conditions: lab strain; 1 hour 37° C. in 10 mM NaCl/50 mM MOPS, pH 7.2, then YPD 24 hours 37° C.
# [9] = tested on: Candida albicans (isolate #28); conditions: clinical isolate #28; 1 hour 37° C. in 10 mM NaCl/50 mM MOPS, pH 7.2, then YPD 24 hours 30° C.
# [10] = tested on: Candida albicans (isolate #3); conditions: clinical isolate #3; 1 hour 37° C. in 10 mM NaCl/50 mM MOPS, pH 7.2, then YPD 24 hours 30° C.
# [11] = tested on: Candida albicans (isolate #98); conditions: clinical isolate #98; 1 hour 37° C. in 10 mM NaCl/50 mM MOPS, pH 7.2, then YPD 24 hours 30° C.
# [12] = tested on: Primary human neonatal foreskin epithelial cells; conditions: 50 μM working (antimicrobial) concentration
# Procedure: At 18 and 36 hours following addition of compound, the foreskin epithelial cells were imaged using phase contract microscopy at 20× magnification. […] The experiments was repeated three times.
# [13] = tested on: Candida albicans (isolate #77); conditions: clinical isolate #77; 1 hour 37° C. in 10 mM NaCl/50 mM MOPS, pH 7.2, then YPD 24 hours 30° C.
# S. aureus (ATCC 29213) = conditions: lab strain ATCC 29213; 1 hour 37° C. in 10 mM NaCl/50 mM MOPS, pH 7.2, then YPD 24 hours 37° C.
# adult rats = assay: Tolerability in adult rats, intra-venous injection; assay type: in vivo
# Procedure: as §1
# phosphorylated ERK 1, 2 = conditions: 50 μM, primary human foreskin epithelial cells
# Procedure: Toxicological studies of DB2121 in human cells were also undertaken. Primary human neonatal foreskin epithelial cells were used to examine DB2121 toxicity, using a method as described in Min et al. 2004. […] At 18 and 36 hours following addition of compound, the foreskin epithelial cells were imaged using phase contract microscopy at 20× magnification. (E) Immediately following the image analysis, proteins were extracted, separated on SDS-PAGE gels, Western blotted, and probed for Phosphorylated and non-phosphorylated ERK 1, 2 to monitor the proliferation of the foreskin keratinocytes. The experiments was repeated three times.
# The primary cells were lysed and monitored for a marker of proliferation namely phosphorylated ERK 1, 2.
# [14] = tested on: S. haemolyticus (ATCC 29970); conditions: lab strain ATCC 29970; 1 hour 37° C. in 10 mM NaCl/50 mM MOPS, pH 7.2, then YPD 24 hours 37° C.
# [15] = 1 uM, 37° C., in vitro
# Procedure: The cyclic analogue was incubated in human saliva at a concentration of 1 uM and at a temperature of 37° C. in vitro. At various time points from 0 to 72 hours, 1.0 ul aliquots were taken and injected directly into a Micromass Quattro Micro mass spectrometer. Data was collected for a total of 3 minutes. The data was then processed using Mass Lynx 4.0 Analysis software.
# S. aurens (ATCC 25923) = conditions: lab strain ATCC 25923; 1 hour 37° C. in 10 mM NaCl/50 mM MOPS, pH 7.2, then YPD 24 hours 37° C.
# [16] = tested on: Candida albicans (isolate #4); conditions: clinical isolate #4; 1 hour 37° C. in 10 mM NaCl/50 mM MOPS, pH 7.2, then YPD 24 hours 30° C.
structure (smiles),measurement,setting,value
N=C(N)NCCC[C@H](NC(=O)[C@H](Cc1c[nH]cn1)NC(=O)[C@@H]1CSSC[C@H](NC(=O)[C@H](Cc2c[nH]cn2)NC(=O)[C@H](Cc2c[nH]cn2)NC(=O)[C@@H](N)CCCNC(=N)N)C(=O)N[C@@H](Cc2ccc(O)cc2)C(=O)N[C@@H](CCCCN)C(=O)N[C@@H](CCCNC(=N)N)C(=O)N[C@@H](CCCCN)C(=O)N[C@@H](Cc2ccccc2)C(=O)N[C@@H](Cc2c[nH]cn2)C(=O)N[C@@H](CCC(=O)O)C(=O)N[C@@H](CCCCN)C(=O)N[C@@H](Cc2c[nH]cn2)C(=O)N[C@@H](Cc2c[nH]cn2)C(=O)N1)C(=O)NCC(=O)N[C@@H](Cc1ccc(O)cc1)C(=O)O [DB2121] (H-RHHCYKRKFHEKHHCHRGY-OH; disulfide 4-15),MIC,[1],4.5 µM
same,concentration withstood,mice,15 mg/kg
same,MIC,[2],4.5 µM
same,MIC,[3],7.8 µM
same,MIC,MRSAS. aureus (STRAIN 1),11.5 µM
same,MIC,[4],4.5 µM
same,MIC (DB2121),Candida albicans,11 µM
same,MIC,[5],6.5 µM
same,MIC,S. aurens (ATCC 43300),5.5 µM
same,toxicity in primary cultured cells (viable cell number),[6],minimal toxicity
same,MIC,MRSAS. aureus (STRAIN 2),11.5 µM
same,MIC,[7],4.5 µM
same,MIC,[8],4.5 µM
same,MIC,Bacillus subtilis,23.9 µM
same,MIC,[9],4.5 µM
same,MIC,[10],8.0 µM
same,MIC,[11],4.5 µM
same,toxicity to human primary cells,[12],non-toxic
same,MIC,[13],4.5 µM
same,MIC,S. aureus (ATCC 29213),12.5 µM
same,concentration that caused no harm,adult rats,≤ 1.5 mg/kg
same,"ERK 1, 2 activation compared to control","phosphorylated ERK 1, 2",not suppressed
same,MIC,[14],4.5 µM
same,stable in human saliva,[15],at least 72 hours
same,MIC,S. aurens (ATCC 25923),4.5 µM
same,MIC,[16],4.5 µM
